Results reported in paper PMC7822874, “Chemoprotective antimalarials identified through quantitative high-throughput screening of Plasmodium blood and liver stage parasites” (Scientific Reports, 2021).

System: Plasmodium falciparum Dd2 asexual blood stage parasites
Test: microbe, parasite or virus in culture
Design: species or system Plasmodium falciparum Dd2 in human erythrocytes; single determination (one 11-point concentration-response curve)
Details: Plasmodium falciparum, DD2, Erythrocyte, 72 h; read-out: AC50

Compound | AC50
CCN(CC)c1cc(CCC(=O)NCCN(C)C2CCCCC2)ccn1 [NCGC00469386-01] | 13.3 µM
Cc1cnc(CC2CCCN([S+](=O)([O-])c3ccccc3)C2)n1CC1CC1 (centres unmarked) [NCGC00469674-01] | 6.68 µM
CCCn1c(C)cnc1CC1CCCN([S+](=O)([O-])c2cc(OC)ccc2OC)C1 (centres unmarked) [NCGC00469684-01] | 10.6 µM
Cc1ccc(CN2CCCC(Cc3ncc(C)n3Cc3ccccc3)C2)o1 (centres unmarked) [NCGC00469705-01] | 9.44 µM
Cc1cc(C(F)(F)F)nn1CC(=O)NCCc1ncc(C)n1CC1CC1 [NCGC00469801-01] | 10.6 µM
O=C(NCc1ccc(N2CCCC2)cc1)C1CCCN(c2cnn(Cc3ccccc3)c(=O)c2)C1 (centres unmarked) [NCGC00470327-01] | 10.6 µM
Fc1cccc(CC2CCOC3(CCNCC3)C2)c1 (centres unmarked) [NCGC00470522-01] | 13.3 µM
Cc1ccc(NC(=O)Cn2c(-c3ccccc3)nc(C)c(CCO)c2=O)cc1Cl [NCGC00470911-01] | 10.6 µM
Cc1nc(-c2ccccc2)n(CC(=O)Nc2ccc(Cl)cc2)c(=O)c1CCO [NCGC00470932-01] | 16.8 µM
Cc1nc(-c2ccc(F)cc2)n(CC(=O)Nc2cccc(Cl)c2)c(=O)c1CCO [NCGC00470975-01] | 15 µM
CSc1cccc(NC(=O)Cn2c(-c3ccc(F)cc3)nc(C)c(CCO)c2=O)c1 [NCGC00470986-01] | 13.3 µM
Cc1nc(-c2cccc(Cl)c2)n(CC(=O)Nc2ccc(C(F)(F)F)cc2)c(=O)c1CCO [NCGC00471081-01] | 13.3 µM
O=C(Cc1ccccc1F)N1CCOc2ccc(CN3CCc4ccccc4C3)cc2C1 [NCGC00471206-01] | 13.3 µM
O=C(Nc1ccc(F)cc1)N1CCOc2ccc(CN3CCc4ccccc4C3)cc2C1 [NCGC00471233-01] | 8.41 µM
O=C(Nc1ccc(F)cc1F)N1CCOc2ccc(CN3CCc4ccccc4C3)cc2C1 [NCGC00471236-01] | 16.8 µM
Cc1ccc(CN2CCc3oc(C)c(C(=O)NCCN4CCCCC4)c3C2)cc1 [NCGC00471970-01] | 10.6 µM

Compound | AC50
CCC1(N2CCN(C)CC2)CCN([S+](=O)([O-])c2ccccc2)C1 (centres unmarked) [NCGC00472095-01] | 6.68 µM
CCN(CC)CCNC(=O)C12CCCC=C1N(Cc1ccccc1)C(=O)CC2 (centres unmarked) [NCGC00472142-01] | 8.41 µM
CC(C)CCN1CCC(N2CCN([S+](=O)([O-])c3ccc4c(c3)CCCC4)CC2)C1=O (centres unmarked) [NCGC00472995-01] | 9.44 µM
CC(=O)Oc1c(-c2ccc(NC(=O)CC(C)C)cc2)c(-c2ccc(F)cc2)nn1-c1ccc(F)cc1 [NCGC00473192-01] | 13.3 µM
COc1ccc(-c2nn(-c3ccc(F)cc3)c(OC(C)=O)c2-c2ccc(NC(C)=O)cc2)cc1OC [NCGC00473193-01] | 15 µM
CC(C)CNC(=O)CN1CN(c2ccccc2)C2(CCN(C(=O)NC3CCCCC3)CC2)C1=O [NCGC00473208-01] | 15 µM
CCC1=C(C(=O)OC)C(c2cccc(F)c2)N2C(CC(=O)NCCc3cccs3)=CSC2=N1 (centres unmarked) [NCGC00473313-01] | 9.44 µM
COc1ccc(CCNC(=O)CC(c2ccccc2OC)c2c[nH]c3ccccc23)cc1OC (centres unmarked) [NCGC00473331-01] | 13.3 µM
CCC1=C(C(=O)OC)C(c2ccccc2OC)N2C(CC(=O)NCC3CCCO3)=CSC2=N1 (centres unmarked) [NCGC00473341-01] | 15 µM
O=C(CC(c1ccc(F)cc1)c1cn(Cc2ccccc2)c2ccc([N+](=O)[O-])cc12)N1CCOCC1 (centres unmarked) [NCGC00473380-01] | 9.44 µM
CCc1cccc2c(C(CC(=O)N3CCC(C)CC3)c3cccc(C)c3)c[nH]c12 (centres unmarked) [NCGC00473418-01] | 4.73 µM
COc1ccc(CCN(C)C(=O)CC(c2cccc(F)c2)c2cn(C)c3ccccc23)cc1OC (centres unmarked) [NCGC00473446-01] | 8.41 µM
CCCCCCNC(=O)Cc1csc2nc(C)c(-c3cc(C)n(-c4cccc(C)c4)n3)c(=O)n12 [NCGC00473470-01] | 15 µM
O=C(c1nc(-c2cccc(C(F)(F)F)c2)c2cnccn12)N1CCCC1 [NCGC00476432-01] | 10.6 µM
O=C(NCc1cccs1)c1nc(-c2cccc(C(F)(F)F)c2)c2cnccn12 [NCGC00476439-01] | 9.44 µM
CC(C)CNC(=O)c1nc(-c2ccc(Cl)cc2)c2cnccn12 [NCGC00476461-01] | 8.63 µM
